Measurements: patent US9925280B2, “Hyperpolarized amino acids” (BRACCO IMAGING S.P.A., priority 2012, dated 2018)

Assay: Solubility in anhydrous solvents
Format: physicochemical
Procedure: The above components of the DNP mixture can be admixed according to any suitable technique and methodology known in the art. In a preferred embodiment, the amino acid and the hydroxide are first admixed as dry powders. The powder mixture is then dissolved in the anhydrous solvent, which preferably already contains the polarizing agent dissolved therein. […] Optionally, the DNP mixture may further contain a paramagnetic metal ion, for further increasing the polarisation levels in the compound to be polarised (see e.g. WO 2007/064226 herein incorporated by reference); preferably, the paramagnetic metal ion is in the form of a complex with a chelating agent, such as, for instance DOTA, DO3A, BOPTA or DTPA; preferably the paramagnetic metal ion is a Gadolinium (Gd^3+).

solubility in anhydrous solvents: very poor solubility
Structure (SMILES): NC(=O)CC[C@H](N)C(=O)O [glutamine]
